The text below walks through data of patent US6579989B1, “Sulphostin analogue and process for producing sulphostin and its analogue” (Zaidan Hojin Biseibutsu Kagaku Kenkyu Kai, priority 1999, dated 2003).

As a reminder, the IC50 is the concentration that gives 50% inhibition. Low readings indicate greater potency in that assay, high ones weaker potency in that assay.

The experiment addresses T1, dipeptidylpeptidase IV (Rattus norvegicus, UniProt P14740).
T1 construct: partially purified through ammonium sulfate fractionation of a homogenate obtained from a kidney of a rat; from tissue; host or cells: rat kidney homogenate
Description: Measurement of dipeptidylpeptidase IV inhibiting activity (glycyl prolyl β-naphthylamide substrate, absorbance at 525 nm). In kind it is biochemical. As to conditions: IC50 (dipeptidylpeptidase IV inhibition activity), enzyme partially purified from rat kidney homogenate; pH 7.2, 37° C., 1 hour. As to the method: Measurement of Dipeptidylpeptidase IV Inhibiting Activity
Water was added to a mixture of 0.025 ml of 3.2 mM glycyl prolyl β-naphthylamide (BACHEM, Switzerland), 0.1 ml of 0.1 M tris-maleic acid buffer solution (pH 7.2) and a compound shown in Table 1, so that a final volume was adjusted to 0.2 ml. The resulting mixed solution was warmed at 37° C. for 10 minutes, and 0.025 ml of a dipeptidylpeptidase IV solution partially purified through ammonium sulfate fractionation of a homogenate obtained from a kidney of a rat was added thereto. Then, the reaction was continued at 37° C. for 1 hour. […] At the same time, a blank test was conducted to measure absorbance (b) of the buffer solution containing no specimen. A dipeptidylpeptidase IV inhibition percent was calculated from the expression: [(b−a)/b]×100.

T1 sequence (P14740 whole entry): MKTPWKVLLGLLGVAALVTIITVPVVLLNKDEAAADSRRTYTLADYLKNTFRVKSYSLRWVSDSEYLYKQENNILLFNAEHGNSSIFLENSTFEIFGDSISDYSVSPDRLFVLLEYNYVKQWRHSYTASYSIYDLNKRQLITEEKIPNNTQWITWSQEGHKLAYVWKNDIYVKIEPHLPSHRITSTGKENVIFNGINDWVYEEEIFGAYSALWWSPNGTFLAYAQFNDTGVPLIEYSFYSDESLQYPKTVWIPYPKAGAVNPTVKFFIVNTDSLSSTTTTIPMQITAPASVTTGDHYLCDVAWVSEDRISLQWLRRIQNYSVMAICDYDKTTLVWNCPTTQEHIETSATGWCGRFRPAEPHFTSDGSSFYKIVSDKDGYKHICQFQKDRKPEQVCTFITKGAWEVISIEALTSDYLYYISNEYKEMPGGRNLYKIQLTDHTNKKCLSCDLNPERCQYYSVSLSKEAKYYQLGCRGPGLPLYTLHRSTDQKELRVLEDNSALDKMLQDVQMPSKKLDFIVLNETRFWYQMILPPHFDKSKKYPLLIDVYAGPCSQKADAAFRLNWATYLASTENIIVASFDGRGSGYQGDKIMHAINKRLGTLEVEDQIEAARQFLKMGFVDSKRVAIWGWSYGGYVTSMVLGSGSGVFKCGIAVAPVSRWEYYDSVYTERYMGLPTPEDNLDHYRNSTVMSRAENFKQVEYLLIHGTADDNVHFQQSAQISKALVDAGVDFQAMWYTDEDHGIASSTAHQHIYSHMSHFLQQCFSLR

`N[C@H]1CCN(P(N)(=O)NS(=O)(=O)O)C1=O` (single isomer, unassigned) [Compound 20, 3(S)-Amino-1-((S*)-amino(sulfoamino)phosphinyl)-2-pyrrolidone] had an IC50 of 1820 nM. That is a single-digit micromolar value. As for `N[C@H]1CCN(P(N)(=O)NS(=O)(=O)O)C1=O` (single isomer, unassigned) [Compound 21, 3(S)-Amino-1-((R*)-amino(sulfoamino)phosphinyl)-2-pyrrolidone], the figure is 15.1 nM.
